According to patent publication US20100244818A1, “APPARATUS AND METHOD FOR TRANSDUCING AN IN VITRO OR MAMMALIAN SYSTEM WITH A LOW-FREQUENCY SIGNAL” (priority 2006, published 2010):

What was measured:
[1] = the compound itself; not examined in the study; cited from earlier work
[2] = test system: tubulin; experiment: tubulin aggregation (polymerization) assay, OD 340 nm; format: biochemical
From the text: This assay has been described, for example, in Shelanski, M. L., Gaskin, F. and Cantor, C. R. (1973). Microtubule assembly in the absence of added nucleotides. Proc. Natl. Acad. Sci. U.S.A. 70, 765-768; and Lee, J. C. and Timasheff, S. N. (1977). In vitro reconstitution of calf brain microtubules: effects of solution variable. Biochemistry, 16, 1754-1762.
The assay protocol was designed for performing a single assay in a cuvette using a spectrophotometer set at 340 nm in a kinetic mode. HTS-Tubulin was purchased from Cytoskeleton, Inc. and is supplied in multiple vials as lyophilized protein. […]
The tubulin-assembly reaction was carried out by exposing the tubulin in GPEM buffer, at a concentration of 1.5 mg/ml to the following polymerization conditions: (i) a buffer (control), (ii) tubulin alone (2nd control); (iii) taxol, added to a final concentration of 4 μM, and (iv) the M2(3) taxol signal from above, transduced over a 20 minute period at a transduction voltage calculated to produce an approximately 1.693294 mG magnetic field. Change in optical absorption at 340 nm was measured continuously for each sample, and the OD340 data was used to calculate a rate of tubulin polymerization (dA/minute at 340 nm) at each one minute interval during the transduction study.
The Vmax of the reaction was also calculated for each sample at the end of the 20 minute assay period. […]

## CC(=O)O[C@H]1C(=O)[C@@]2(C)[C@H]([C@H](OC(=O)c3ccccc3)[C@]3(O)C[C@H](OC(=O)[C@H](O)[C@@H](NC(=O)c4ccccc4)c4ccccc4)C(C)=C1C3(C)C)[C@]1(OC(C)=O)CO[C@@H]1C[C@@H]2O [taxol]
[1]
  delivery to the brain: poorly deliver to the brain
[2]; at two minutes, taxol 4 μM, FIG. 16B
  rate of tubulin polymerization (dA/minute at 340 nm): increased significantly
[2]; taxol at 4 μM, tubulin 1.5 mg/ml in GPEM buffer, end of 20 minute assay, FIG. 17
  Vmax (single composite, maximum rate of reaction over the entire assay): ~1.8
